# Legend:
# [1] = test system: Mouse colon cancer, Colon26; experiment: Antitumor effect, Test Example 3: subcutaneously transplanted Colon26 in mice, single intravenous administration; type: in vivo, mouse (female CDF1 mice); details: 200 mg/kg (as combretastatin A-4), single i.v.
# Procedure: (§1) Mouse colon cancer, Colon26, maintained by serial subcutaneous subculture in mice was minced into about 1-mm square fragments, and the fragments were subcutaneously transplanted on the dorsal part of female CDF1 mice with a trocar. Seven days after tumor transplantation, the high-molecular weight conjugate of the present invention (compound 2 and compound 3) or a control drug (combretastatin A-4 phosphoric acid ester) synthesized by a method according to Non-Patent Document 1 was administered a single time intravenously to the mouse tail vein, at a dose respectively calculated on the basis of combretastatin A-4. The control is a group not given the drug. Compound 2, compound 3 and the control drug were all dissolved in a 5% glucose injection solution and used. After the administration, the major axis (L mm) and the minor axis (W mm) of the tumor were measured using a caliper, and the volume of tumor was calculated by the formula: (L×W^2)/2.
# [2] = test system: Mouse colon cancer, Colon26; experiment: Antitumor effect, Test Example 2: subcutaneously transplanted Colon26 in mice, single intravenous administration; type: in vivo, mouse (female CDF1 mice); details: single i.v.
# Procedure: as §1, with “2-mm” for “1-mm”, “1)” for “2 and compound 3)”, “A-4)” for “A-4 phosphoric acid ester) synthesized by a method according to Non-Patent Document 1”, “1 was” for “2, compound 3 and the control drug were all”, “used. Combretastatin A-4 was dissolved in dimethylsulfoxide and Cremophor EL (manufactured by Sigma-Aldrich Company), and was used after diluted with a 5% glucose injection solution at the time of use.” for “used.”
SMILES,relative tumor volume based on the tumor volume on the day of initiation of administration ([1]; day 0 after administration),relative tumor volume based on the tumor volume on the day of initiation of administration ([1]; day 2 after administration),relative tumor volume based on the tumor volume on the day of initiation of administration ([1]; day 4 after administration),relative tumor volume based on the tumor volume on the day of initiation of administration ([1]; day 7 after administration),relative tumor volume based on the tumor volume on the day of initiation of administration ([1]; day 9 after administration),"relative tumor volume based on the tumor volume on the day of initiation of administration ([2]; 200 mg/kg (as combretastatin A-4), day 0 after administration)","relative tumor volume based on the tumor volume on the day of initiation of administration ([2]; 200 mg/kg (as combretastatin A-4), day 2 after administration)","relative tumor volume based on the tumor volume on the day of initiation of administration ([2]; 200 mg/kg (as combretastatin A-4), day 4 after administration)","relative tumor volume based on the tumor volume on the day of initiation of administration ([2]; 200 mg/kg (as combretastatin A-4), day 7 after administration)","relative tumor volume based on the tumor volume on the day of initiation of administration ([2]; 200 mg/kg (as combretastatin A-4), day 8 after administration)","relative tumor volume based on the tumor volume on the day of initiation of administration ([2]; 400 mg/kg, day 0 after administration)","relative tumor volume based on the tumor volume on the day of initiation of administration ([2]; 400 mg/kg, day 2 after administration)","relative tumor volume based on the tumor volume on the day of initiation of administration ([2]; 400 mg/kg, day 4 after administration)","relative tumor volume based on the tumor volume on the day of initiation of administration ([2]; 400 mg/kg, day 7 after administration)","relative tumor volume based on the tumor volume on the day of initiation of administration ([2]; 400 mg/kg, day 8 after administration)"
"COc1ccc(/C=C\c2cc(OC)c(OC)c(OC)c2)cc1OP(=O)(O)O [Combretastatin A-4 phosphoric acid ester, combretastatin A-4 phosphoric acid ester]",1.00,1.57,3.12,9.33,10.11,–,–,–,–,–,–,–,–,–,–
"COc1ccc(/C=C\c2cc(OC)c(OC)c(OC)c2)cc1O [Combretastatin A-4, combretastatin A-4]",–,–,–,–,–,1.00,1.77,3.73,9.25,12.03,1.00,1.24,2.21,5.09,6.41

# — patent publication US20100004403A1, “High-Molecular Weight Conjugate of Combretastatins” (priority 2006, published 2010)
